Assay results from BindingDB's records for patent US12344597 (Idorsia Pharmaceuticals, 2025).

Molecular target: Lysophosphatidic acid receptor 1 (Homo sapiens, UniProt Q92633)
Assay: Beta-Arrestin Recruitment Assay
Excerpt: The Tango™ EDG2-bla U2OS cells are obtained from Invitrogen. These cells contain the human LPA1 receptor cDNA linked to a TEV protease site and a Gal4-VP16 transcription factor integrated into the Tango™ GPCR-bla U2OS parental cell line. This parental cell line stably expresses a beta-arrestin/TEV protease fusion protein and the beta-lactamase (bla) reporter gene under the control of a UAS response element. Upon LPA (agonist) binding, LPA1 receptor gets activated, leading to arrestin-protease recruitment and proteolytic release of the transcription factor: The transcription factor then regulates transcription of a beta-lactamase reporter construct, which is measured upon addition of the live-cell substrate.10′000 Tango™ EDG2-bla U2OS cells are seeded in a 384-well black with clear bottom plate in 30 μl Freestyle 293 Expression Medium (Invitrogen) and incubated for 20 h at 37° C., 5% CO2. […] IC50 is the concentration of antagonist inhibiting 50% of the maximal response.

Lysophosphatidic acid receptor 1, sequence (Q92633 whole entry): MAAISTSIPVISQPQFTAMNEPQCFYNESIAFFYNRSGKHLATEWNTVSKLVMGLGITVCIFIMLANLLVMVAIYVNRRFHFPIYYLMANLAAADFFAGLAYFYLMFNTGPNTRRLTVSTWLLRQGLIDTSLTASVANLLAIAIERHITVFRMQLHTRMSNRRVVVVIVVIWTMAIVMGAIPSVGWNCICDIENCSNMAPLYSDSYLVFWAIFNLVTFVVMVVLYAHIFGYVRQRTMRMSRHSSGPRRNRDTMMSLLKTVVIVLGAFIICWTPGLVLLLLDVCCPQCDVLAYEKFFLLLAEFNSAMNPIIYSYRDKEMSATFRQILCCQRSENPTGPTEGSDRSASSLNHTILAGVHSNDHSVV

IC50: 4 nM
Structure (SMILES): Cc1ccc(NC(=O)C2(c3ccccc3C(C)C)CN(CCC#N)C2)c(OC(F)F)n1 [US12344597, Example 11-16]
